Type: physicochemical
Procedure: A 1:1 mixture of Form I and Form II was suspended in isopropanol and agitated with a magnetic stirrer for 18 h in a tightly sealed glass […]. […] Subsequently the sample was filtered with a micro glass filter funnel (G3), dried and evacuated.

COc1ccccc1OCCNCC(O)COc1cccc2[nH]c3ccccc3c12 (racemic) [Form I, (±)1-(4-carbazolyloxy)-3-[2-(2-methoxyphenoxy)ethylamno]-2-propanole]
thermodynamic stability of the modification: thermodynamically stable form
